The text below walks through data of patent US20260285853A1, “COMPOUNDS AND METHODS FOR MODULATING SPLICING” (REMIX THERAPEUTICS INC., priority 2023, published 2026).

Assay type in all cases: cell-based
Test [1] concerns HTT mRNA. As to the kind of experiment: Gene panel canonical junction qPCR assay, decrease in CJ mRNA, Table 3. The conditions noted are these: decrease in canonical junction (CJ) mRNA, gene panel qPCR, Table 3. The method, boiled down: (§1)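 IC50 denotes the concentration giving 50% decrease in canonical-junction mRNA, fitted by 4-parameter logistic to percentage response derived from ΔΔCt versus housekeeping gene and DMSO control. Cells (A673 or K562) exposed 24 h to 11-point 3-fold serial dilutions from 10 uM top, DMSO ≤0.25%; junction-spanning primer/probe qPCR.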
(In general: Real-time PCR tracks product formation cycle by cycle.)

Test [2] has as its system MYB mRNA. The description is as above. The conditions noted are these: decrease in canonical junction (CJ) mRNA, gene panel qPCR, Table 3. The essentials:
as §1

Test [3] relates to MYB mRNA. As to the kind of experiment: Splicing RT-qPCR assay (THP), Table 2A. To be noted: Table 2A (THP); for AC50: AJ mRNA increase, read-out: MYB AJ (increase in alternative junction mRNA, AC50); for IC50: CJ mRNA decrease, read-out: MYB CJ (decrease in canonical junction mRNA, IC50).
The test system of test [4] is SH-SY5Y (human neuroblastoma) cells. As to the kind of experiment: Cell viability, Cell Titer Glo 2.0 assay. The conditions noted are these: read-out: Viability SHSY5Y.3 GI50. The essentials: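 Viability was read by CellTiter-Glo 2.0 luminescence after a 72-hour compound exposure at 37° C. under 5% CO2. Cells were in IMDM plus 10% FBS containing 0.1% DMSO, and medium-only wells gave the blank.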

For test [5], the system named is HTT mRNA. As to the kind of experiment: Splicing RT-qPCR assay (THP), Table 2A. To be noted: Table 2A (THP); for AC50: AJ mRNA increase, read-out: HTT AJ (increase in alternative junction mRNA, AC50); for IC50: CJ mRNA decrease, read-out: HTT CJ (decrease in canonical junction mRNA, IC50).

For `COc1c(NC(=O)c2c(F)cc(N3CCC(NC4CC4)CC3)c3cn(C)nc23)cc2cn(C)nc2c1Cl` [Compound 433, N-(7-chloro-6-methoxy-2-methyl-indazol-5-yl)-4-[4-(cyclopropylamino)-1-piperidyl]-6-fluoro-2-methyl-indazole-7-carboxamide], the IC50 (commonly the concentration that gives 50% inhibition) is 0.1 to 1 µM with HTT mRNA [1], below 0.1 µM in the test with MYB mRNA [2], below 0.1 µM with MYB mRNA [3] and 0.1 to 1 µM in the test on HTT mRNA [5]. In addition, the figures for the AC50 with MYB mRNA [3] and with HTT mRNA [5] were below 0.1 µM and 0.1 to 1 µM, respectively. Also, in test [4], the GI50 (as a rule, the concentration that inhibits growth by half) is below 0.1 µM.
As for `COc1cc2nn(C)cc2cc1NC(=O)c1cnc(N2CCC(NC3CC3)CC2)c2cn(C)nc12` [Compound 434, 4-[4-(cyclopropylamino)-1-piperidyl]-N-(6-methoxy-2-methyl-indazol-5-yl)-2-methyl-pyrazolo[4,3-c]pyridine-7-carboxamide], the IC50 with HTT mRNA [1] is 0.1 to 1 µM; in the test on MYB mRNA [2], below 0.1 µM; with MYB mRNA [3] it was below 0.1 µM; with HTT mRNA [5] it was 0.1 to 1 µM. In addition, the AC50 (as a rule, the concentration giving half of the maximal activity seen) with MYB mRNA [3] was below 0.1 µM; in the test with HTT mRNA [5] it was 0.1 to 1 µM. Moreover, the GI50 in test [4] was 1 to 10 µM.
For the molecule `CNc1cc(N2CCC(NC3CC3)CC2)c2cn(C)nc2c1C(=O)Nc1cc2cn(C)nc2cc1OC` [Compound 435, 2,2,2-trifluoroacetate], the IC50 with HTT mRNA [1], with MYB mRNA [2], in the test with MYB mRNA [3] and in the test with HTT mRNA [5] was above 10 µM each time. In addition, the half-maximal activity concentration (AC50) in the test with MYB mRNA [3] and with HTT mRNA [5] was above 10 µM each time. The GI50 in test [4] lay in the range of 1 to 10 µM.
Turning to `COc1cc2nn(C)cc2cc1NC(=O)c1c(Cl)cc(N2CCC(NC3CC3)CC2)c2cn(C)nc12` [Compound 436, 6-chloro-4-[4-(cyclopropylamino)-1-piperidyl]-N-(6-methoxy-2-methyl-indazol-5-yl)-2-methyl-indazole-7-carboxamide], the IC50 in the test on HTT mRNA [1] was above 10 µM; in the test on MYB mRNA [2] it was 0.1 to 1 µM; in the test on MYB mRNA [3], 0.1 to 1 µM; in the test on HTT mRNA [5], above 10 µM. Also, the AC50 in the test with MYB mRNA [3] was 0.1 to 1 µM; in the test with HTT mRNA [5], above 10 µM. Besides, the GI50 in test [4] is 1 to 10 µM.
For the molecule `COc1cc2nn(C)cc2cc1C#Cc1ccc(N2CCC(NC3CC3)CC2)c2cn(C)nc12` [Compound 437, N-cyclopropyl-1-[7-[2-(6-methoxy-2-methyl-indazol-5-yl)ethynyl]-2-methyl-indazol-4-yl]-piperidin-4-amine], the IC50 in the test with HTT mRNA [1], in the test on MYB mRNA [2], in the test on MYB mRNA [3] and in the test with HTT mRNA [5] was above 10 µM in each case. Also, the AC50 with MYB mRNA [3] and with HTT mRNA [5] was above 10 µM throughout. Moreover, the GI50 in test [4] fell in the range of 1 to 10 µM.
With `Cn1cc2cc(NC(=O)c3c(F)cc(N4CCC(NC5CC5)CC4)c4cn(C)nc34)c(OC3CC3)cc2n1` [Compound 438, N-[6-(cyclopropoxy)-2-methyl-indazol-5-yl]-4-[4-(cyclopropylamino)-1-piperidyl]-6-fluoro-2-methyl-indazole-7-carboxamide], the concentration for half-maximal inhibition (IC50) in the test with HTT mRNA [1], in the test on MYB mRNA [2], in the test on MYB mRNA [3] and in the test on HTT mRNA [5] was above 10 µM each time. Besides, the AC50 in the test on MYB mRNA [3] and in the test on HTT mRNA [5] was above 10 µM each time. Besides, in test [4], the GI50 was above 10 µM.
`Cn1cc2cc(NC(=O)c3c(F)cc(N4CCC(NC5CC5)CC4)c4cn(C)nc34)c(Cl)cc2n1` [Compound 439, N-(6-chloro-2-methyl-indazol-5-yl)-4-[4-(cyclopropylamino)-1-piperidyl]-6-fluoro-2-methyl-indazole-7-carboxamide]: the IC50 in the test with HTT mRNA [1], with MYB mRNA [2], with MYB mRNA [3] and with HTT mRNA [5] was above 10 µM each time. In addition, the AC50 in the test with MYB mRNA [3] and in the test with HTT mRNA [5] was above 10 µM throughout. For the same molecule, the GI50 in test [4] is above 10 µM.
